Each structure is given as a SMILES string.

Data set [1] relates to HBV. The data set is described as follows: anti HBV activity, HepG2.117 inducible (Tet-off) cell line, intracellular HBV DNA by realtime PCR. Format: cell-based. The following applies: HepG2.117 cells, 3 days of treatment.
The subject of data set [2] is HBV. In words: anti-HBV activity, HepG2.2.15 stable transfected cell line, HBV DNA from secreted virions by realtime PCR. Format: cell-based. The following applies: HepG2.2.15 cells, 6 days of treatment, secreted virion HBV DNA.
In data set [3] the test system is HepG2 cells. In words: Cytotoxicity in HepG2 cells, 4 days, Resazurin assay. The following applies: read-out: HepG2 4 days CC50, 4 days, Resazurin.
Data set [4] has as its system HepG2 cells. In words: Cytotoxicity in HepG2 cells using CellTiter-Blue. Format: cell-based. The following applies: 6 days. Background: The colour change of resazurin is a common sign of viable cells or microbes.
The nature of data set [5]: Cytotoxicity in HepG2 cells, 4 days, Resazurin assay. The settings on record: human.

As for `COC(=O)N1CCCC(NS(=O)(=O)c2cccc(C(=O)Nc3ccc(F)c(C)c3)c2)C1` (racemic) [Compound 159], in the data set with HBV [1] (Hepatitis B virus, 72 h), the 50% effective concentration (EC50) (commonly the concentration needed to bring the measured effect to its halfway point) worked out at 300 nM. Turning to `COC(=O)N1CCCC(NS(=O)(=O)c2cccc(C(=O)Nc3ccc(F)c(C)c3)c2)C1` (racemic) [Compound 159a], the half-maximal effective concentration (EC50) was 170 nM in the data set with HBV [2] and 860 nM with HBV [1]. As to `COC(=O)N1CCCC(NS(=O)(=O)c2cccc(C(=O)Nc3ccc(F)c(C)c3)c2)C1` (racemic) [Compound 159b], the concentration giving a half-maximal response (EC50) with HBV [2] was determined as 160 nM; in the data set on HBV [1] it was 230 nM. Take `Cc1cc(NC(=O)c2cccc(S(=O)(=O)NC3CC(=O)N(C)C3)c2)ccc1F` (racemic) [Compound 179]: the 50% effective concentration (EC50) came to 210 nM with HBV [2] (Hepatitis B virus, 144 h) and 440 nM in the data set with HBV [1] (Hepatitis B virus, 72 h).

With `Cc1cc(NC(=O)c2cccc(S(=O)(=O)NC3CC(=O)N(C)C3)c2)ccc1F` (racemic) [Compound 179a], the EC50 with HBV [2] amounted to 380 nM; with HBV [1], 250 nM. In addition, the cytotoxic concentration (CC50) – broadly, the concentration at which the toxic effect on the cells reaches its halfway point – in the data set with HepG2 cells [3] is more than 25000 nM. In the case of `Cc1cc(NC(=O)c2cccc(S(=O)(=O)NC3CC(=O)N(C)C3)c2)ccc1F` (racemic) [Compound 179b], the EC50 in the data set with HBV [2] came to 1110 nM; in the data set with HBV [1], 1840 nM. For the same compound, the half-maximal cytotoxic concentration (CC50) in the data set with HepG2 cells [3] was more than 25000 nM. Take `Cc1cc(NC(=O)c2cccc(S(=O)(=O)N[C@@H]3CCC[C@H](O)C3)c2)ccc1F` (single isomer, unassigned) [Compound 134b, N-(4-fluoro-3-methyl-phenyl)-3-[[(1R,3S)-3-hydroxycyclohexyl]sulfamoyl]benzamide or N-(4-fluoro-3-methyl-phenyl)-3-[[(1S,3R)-3-hydroxycyclohexyl]sulfamoyl]benzamide]: the EC50 in the data set on HBV [1] turned out to be 200 nM. Consider `Cc1cc(NC(=O)c2cccc(S(=O)(=O)N[C@H]3Cc4ccccc4[C@@H]3O)c2)ccc1F` (single isomer, unassigned) [Compound 141a, N-(4-fluoro-3-methyl-phenyl)-3-[[(1S,2S)-1-hydroxyindan-2-yl]-sulfamoyl]benzamide or N-(4-fluoro-3-methyl-phenyl)-3-[[(1R,2R)-1-hydroxyindan-2-yl]sulfamoyl]benzamide], for which the midpoint of the response with HBV [2], the EC50, lay at 700 nM. Moreover, the CC50 with HepG2 cells [3] was more than 25000 nM.

On to `Cc1cc(NC(=O)c2cccc(S(=O)(=O)N[C@H]3Cc4ccccc4[C@H]3O)c2)ccc1F` (single isomer, unassigned) [Compound 141b, N-(4-fluoro-3-methyl-phenyl)-3-[[(1R,2S)-1-hydroxyindan-2-yl]sulfamoyl]benzamide or N-(4-fluoro-3-methyl-phenyl)-3-[[(1S,2R)-1-hydroxyindan-2-yl]sulfamoyl]benzamide], for which, in the data set with HepG2 cells [3], the CC50 is more than 25000 nM.

As to `Cc1cc(NC(=O)c2cccc(S(=O)(=O)N[C@@H]3CC[C@H](O)C3)c2)ccc1F` (single isomer, unassigned) [Compound 145a, N-(4-fluoro-3-methyl-phenyl)-3-[[(1R,3S)-3-hydroxycyclopentyl]sulfamoyl]benzamide or N-(4-fluoro-3-methyl-phenyl)-3-[[(1S,3R)-3-hydroxycyclopentyl]sulfamoyl]benzamide], in the data set with HepG2 cells [3], the CC50 was more than 25000 nM. Turning to `Cc1cc(NC(=O)c2cccc(S(=O)(=O)N[C@H]3CC[C@H](O)C3)c2)ccc1F` (single isomer, unassigned) [Compound 145c, N-(4-fluoro-3-methyl-phenyl)-3-[[(1S,3S)-3-hydroxycyclopentyl]-sulfamoyl]benzamide or N-(4-fluoro-3-methyl-phenyl)-3-[[(1R,3R)-3-hydroxycyclopentyl]sulfamoyl]benzamide], the cytotoxic concentration (CC50) in the data set on HepG2 cells [3] is more than 25000 nM. With `Cc1cc(NC(=O)c2cccc(S(=O)(=O)N[C@H]3CC[C@H](O)C3)c2)ccc1F` (single isomer, unassigned) [Compound 145d, N-(4-fluoro-3-methyl-phenyl)-3-[[(1S,3S)-3-hydroxycyclopentyl]-sulfamoyl]benzamide or N-(4-fluoro-3-methyl-phenyl)-3-[[(1R,3R)-3-hydroxycyclopentyl]sulfamoyl]benzamide], the EC50 with HBV [2] came out at 400 nM. In other words, the sub-micromolar range. As for `CC1(NS(=O)(=O)c2cccc(C(=O)Nc3ccc(F)cc3)c2)COC1` [Compound 4], the EC50 with HBV [2] (Hepatitis B virus, 144 h) came out at 960 nM; with HBV [1] (Hepatitis B virus, 72 h), 930 nM. The CC50 in the data set with HepG2 cells [3] is more than 100000 nM. With `O=C(Nc1ccccc1)c1cc(S(=O)(=O)N2CCCCC2)c(Cl)cc1Cl` [Compound 20], in the data set on HepG2 cells [3], the CC50 came out at 79600 nM. Compound `Cc1ccccc1NC(=O)c1cccc(S(=O)(=O)NC2CCCCC2)c1` [Compound 34] had a 50% effective concentration (EC50) in the data set on HBV [2] (Hepatitis B virus, 144 h) of 4180 nM. Moreover, the 50% cytotoxic concentration (CC50) in the data set on HepG2 cells [4] is more than 25000 nM. For `O=C(Nc1ccc(F)cc1)c1cc(S(=O)(=O)N2CCCCC2)cs1` [Compound 61], the 50% cytotoxic concentration (CC50) in the data set on HepG2 cells [3] turned out to be 35700 nM.

`CC1(NS(=O)(=O)c2cccc(C(=O)Nc3ccc(F)cc3)c2)CCOCC1` [Compound 83] yielded a CC50 at 4 days in data set [5] of more than 25000 nM. In the data set with HBV [2] (Hepatitis B virus, 144 h), `Cc1cc(NC(=O)c2cccc(S(=O)(=O)NC3CCCC(O)C3)c2)ccc1F` (centres unmarked) [Compound 134] registered an EC50 of 180 nM.

Values taken from patent publication US10995064B2, “Sulfamoyl-arylamides and the use thereof as medicaments for the treatment of hepatitis B” (priority 2012, dated 2021).
